Converted amounts (≈) assume the structure as drawn.
Columns and labels:
Type in all cases: physicochemical
[1] = High-humidity stability test (XRPD); settings: relative humidities of 90% and 75% at 25° C. for 10 d, XRPD on day 5 and day 10
Method: (§1) According to the Guidelines for Stability Tests of Active Pharmaceutical Ingredients (APIs) and Formulations, the stability of the novel crystal form F of trelagliptin was tested.
High-humidity test: The novel crystal form F of trelagliptin was spread in petri dishes, and then the petri dishes were placed in constant-temperature and constant-humidity incubators respectively with relative humidities of 90% and 75% at 25° C. for 10 d, where on day 5 and day 10, a sample was taken and subjected to XRPD analysis to determine whether the crystal form was stable.

[2] = Moisture absorption; settings: 80% RH, 25° C., 24 h
Method: The dried novel crystal form F of trelagliptin prepared in this example was spread in a weighing bottle, then placed in a constant-temperature and constant-humidity incubator with a humidity of 80% RH and a temperature of 25° C. for 24 h, and then weighed.

[3] = High-temperature stability test (XRPD); settings: 60° C. for 10 d, XRPD on day 5 and day 10
Method: as §1
(§2) High-temperature test: The novel crystal form F of trelagliptin was spread in a petri dish and then placed in a drying oven at 60° C. for 10 d, where on day 5 and day 10, a sample was taken and subjected to XRPD analysis to determine whether the crystal form was stable.

[4] = Equilibrium solubility of trelagliptin crystal forms in different dissolution media (UV-vis at 279 nm); settings: for Solubility / solubility at 24 h: 24 h; for solubility at 24 h: 37 °C, thermodynamic from solid
[5] = Strong light irradiation stability test (XRPD); settings: illuminance 4500 lx±500 lx for 10 d, XRPD on day 5 and day 10
Method: as §1
as §2, with “Strong light irradiation” for “High-temperature”, “strong light irradiation test chamber with illuminance of 4500 lx±500 lx” for “drying oven at 60° C.”

Stability of the crystal form [1] | Weight gain (moisture absorption) [2] | Stability of the crystal form [3] | Solubility ([4]; buffer solution pH = 1.2, 37° C.) | Solubility ([4]; buffer solution pH = 7.4, 37° C.) | solubility at 24 h ([4]; deionized water, water) | Solubilities compared with the original crystal form I ([4]; deionized water, pH 6.8, pH 7.4 and pH 1.2 buffer solutions) | Solubility ([4]; sodium phosphate buffer solution pH = 6.8, 37° C.) | Stability of the crystal form [5] | solubility at 24 h ([4]; buffer solution, pH 1.2, simulated gastric fluid, buffer solution pH = 1.2, 37° C.) | Compound
no impact on the stability | less than 0.4% | no impact on the stability | 73.61 mg/mL (≈ 206 mM) | 30.54 mg/mL (≈ 85.5 mM) | 8.51 mg/mL (≈ 23.8 mM) | significantly-higher solubilities | 32.78 mg/mL (≈ 91.7 mM) | no impact on the stability |  | Cn1c(=O)cc(N2CCC[C@@H](N)C2)n(Cc2cc(F)ccc2C#N)c1=O [Crystal form F, trelagliptin]
 |  |  |  |  |  |  |  |  | 42.7 mg/mL (≈ 119 mM) | Cn1c(=O)cc(N2CCC[C@@H](N)C2)n(Cc2cc(F)ccc2C#N)c1=O [Crystal form I, trelagliptin]

— patent US12264145B2, “Crystal form F of trelagliptin and preparation method thereof” (GUANGDONG UNIVERSITY OF TECHNOLOGY, priority 2023, dated 2025)
